Measurements published in patent publication US12258327B2, “5-membered heteroaryl-containing aminopyridine compounds as EGFR inhibitors” (YUHAN CORPORATION, priority 2021, dated 2025).
Where two headings read alike, the source gives them in different places.

Assays:
EGFR del19/T790M/C797S = EGFR del19/T790M/C797S (Homo sapiens, UniProt P00533, C797S/DEL746-750/T790M); experiment: Biochemical EGFR kinase assay (Lance Ultra TR-FRET), triple mutant del19/T790M/C797S
In short: (§1)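 Kinase activity is measured by TR-FRET phosphopeptide detection. Compounds span 0.003 μM to 10 μM; the 1 h reaction at room temperature is quenched with EDTA, then labelled antibody (2 nM) is incubated 60 min before reading.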

EGFR L858R/T790M/C797S = EGFR L858R/T790M/C797S (Homo sapiens, UniProt P00533, C797S/L858R/T790M); experiment: Biochemical EGFR kinase assay (Lance Ultra TR-FRET), triple mutant L858R/T790M/C797S
Chain of EGFR L858R/T790M/C797S (P00533 25-1210 T790M/C797S/L858R): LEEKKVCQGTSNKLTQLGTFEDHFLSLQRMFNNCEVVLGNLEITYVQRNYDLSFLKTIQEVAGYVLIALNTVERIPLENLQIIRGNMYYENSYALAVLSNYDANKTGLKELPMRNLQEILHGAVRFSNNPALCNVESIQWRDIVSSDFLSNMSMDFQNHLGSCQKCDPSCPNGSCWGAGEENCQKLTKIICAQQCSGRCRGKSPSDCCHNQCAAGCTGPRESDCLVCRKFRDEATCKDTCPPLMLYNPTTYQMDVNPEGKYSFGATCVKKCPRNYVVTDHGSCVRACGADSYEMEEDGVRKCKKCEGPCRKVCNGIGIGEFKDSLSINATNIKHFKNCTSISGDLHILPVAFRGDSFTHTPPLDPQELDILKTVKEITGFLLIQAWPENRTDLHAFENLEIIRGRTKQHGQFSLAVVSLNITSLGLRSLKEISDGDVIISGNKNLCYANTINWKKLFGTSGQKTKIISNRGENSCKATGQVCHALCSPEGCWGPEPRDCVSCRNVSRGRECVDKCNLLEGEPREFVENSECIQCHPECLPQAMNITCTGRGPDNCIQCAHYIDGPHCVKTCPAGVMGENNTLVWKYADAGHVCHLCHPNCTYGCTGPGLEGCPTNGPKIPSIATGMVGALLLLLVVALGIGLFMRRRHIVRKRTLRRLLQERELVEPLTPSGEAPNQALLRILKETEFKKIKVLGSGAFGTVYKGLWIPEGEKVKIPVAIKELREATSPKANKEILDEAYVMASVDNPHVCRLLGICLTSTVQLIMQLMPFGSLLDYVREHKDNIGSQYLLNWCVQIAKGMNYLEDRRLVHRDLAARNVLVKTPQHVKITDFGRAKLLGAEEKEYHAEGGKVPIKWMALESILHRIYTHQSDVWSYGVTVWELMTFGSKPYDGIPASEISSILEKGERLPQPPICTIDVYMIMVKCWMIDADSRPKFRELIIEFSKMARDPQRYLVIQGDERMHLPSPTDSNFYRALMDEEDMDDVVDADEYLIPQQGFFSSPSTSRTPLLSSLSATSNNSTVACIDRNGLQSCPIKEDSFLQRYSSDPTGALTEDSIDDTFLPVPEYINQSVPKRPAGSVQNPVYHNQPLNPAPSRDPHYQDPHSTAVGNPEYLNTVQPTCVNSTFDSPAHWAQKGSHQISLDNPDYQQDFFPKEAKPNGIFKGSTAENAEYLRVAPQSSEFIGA
In short: as §1

EGFR del19/C797S = EGFR del19/C797S (Homo sapiens, UniProt P00533, C797S/DEL746-750); experiment: Biochemical EGFR kinase assay (Lance Ultra TR-FRET), double mutant del19/C797S
Chain of EGFR del19/C797S (P00533 with tags, fused parts or gaps DEL746-750/C797S): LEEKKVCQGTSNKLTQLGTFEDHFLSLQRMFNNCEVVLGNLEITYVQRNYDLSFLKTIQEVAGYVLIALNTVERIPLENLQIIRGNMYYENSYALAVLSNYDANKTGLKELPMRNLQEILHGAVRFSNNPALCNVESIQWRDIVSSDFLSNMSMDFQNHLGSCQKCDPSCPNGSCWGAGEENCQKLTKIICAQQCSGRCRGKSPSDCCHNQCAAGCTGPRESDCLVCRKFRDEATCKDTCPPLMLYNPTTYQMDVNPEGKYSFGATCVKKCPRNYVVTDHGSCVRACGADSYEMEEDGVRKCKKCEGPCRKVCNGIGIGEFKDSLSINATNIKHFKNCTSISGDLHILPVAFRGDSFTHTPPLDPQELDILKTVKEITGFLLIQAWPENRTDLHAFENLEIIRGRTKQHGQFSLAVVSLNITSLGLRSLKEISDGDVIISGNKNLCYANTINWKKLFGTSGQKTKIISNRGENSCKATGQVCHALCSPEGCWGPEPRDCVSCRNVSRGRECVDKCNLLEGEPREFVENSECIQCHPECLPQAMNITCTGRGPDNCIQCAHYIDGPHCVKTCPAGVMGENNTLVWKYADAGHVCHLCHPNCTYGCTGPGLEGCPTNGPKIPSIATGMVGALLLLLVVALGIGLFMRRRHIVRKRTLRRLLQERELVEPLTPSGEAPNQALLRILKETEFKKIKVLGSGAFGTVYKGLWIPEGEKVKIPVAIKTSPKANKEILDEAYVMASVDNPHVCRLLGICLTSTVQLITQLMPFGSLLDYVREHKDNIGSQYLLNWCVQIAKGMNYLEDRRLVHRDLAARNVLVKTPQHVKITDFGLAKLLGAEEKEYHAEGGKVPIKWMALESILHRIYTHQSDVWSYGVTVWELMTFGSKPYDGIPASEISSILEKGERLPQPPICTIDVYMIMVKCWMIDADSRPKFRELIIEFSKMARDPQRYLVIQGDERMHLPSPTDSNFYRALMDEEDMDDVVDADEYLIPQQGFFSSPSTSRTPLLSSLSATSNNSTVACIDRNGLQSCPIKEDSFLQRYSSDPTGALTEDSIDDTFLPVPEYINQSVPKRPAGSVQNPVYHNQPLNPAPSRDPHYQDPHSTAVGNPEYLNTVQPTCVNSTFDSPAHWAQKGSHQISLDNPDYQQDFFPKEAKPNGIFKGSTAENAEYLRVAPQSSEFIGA
In short: as §1

EGFR L858R/C797S = EGFR L858R/C797S (Homo sapiens, UniProt P00533, C797S/L858R); experiment: Biochemical EGFR kinase assay (Lance Ultra TR-FRET), double mutant L858R/C797S
Chain of EGFR L858R/C797S (P00533 25-1210 C797S/L858R): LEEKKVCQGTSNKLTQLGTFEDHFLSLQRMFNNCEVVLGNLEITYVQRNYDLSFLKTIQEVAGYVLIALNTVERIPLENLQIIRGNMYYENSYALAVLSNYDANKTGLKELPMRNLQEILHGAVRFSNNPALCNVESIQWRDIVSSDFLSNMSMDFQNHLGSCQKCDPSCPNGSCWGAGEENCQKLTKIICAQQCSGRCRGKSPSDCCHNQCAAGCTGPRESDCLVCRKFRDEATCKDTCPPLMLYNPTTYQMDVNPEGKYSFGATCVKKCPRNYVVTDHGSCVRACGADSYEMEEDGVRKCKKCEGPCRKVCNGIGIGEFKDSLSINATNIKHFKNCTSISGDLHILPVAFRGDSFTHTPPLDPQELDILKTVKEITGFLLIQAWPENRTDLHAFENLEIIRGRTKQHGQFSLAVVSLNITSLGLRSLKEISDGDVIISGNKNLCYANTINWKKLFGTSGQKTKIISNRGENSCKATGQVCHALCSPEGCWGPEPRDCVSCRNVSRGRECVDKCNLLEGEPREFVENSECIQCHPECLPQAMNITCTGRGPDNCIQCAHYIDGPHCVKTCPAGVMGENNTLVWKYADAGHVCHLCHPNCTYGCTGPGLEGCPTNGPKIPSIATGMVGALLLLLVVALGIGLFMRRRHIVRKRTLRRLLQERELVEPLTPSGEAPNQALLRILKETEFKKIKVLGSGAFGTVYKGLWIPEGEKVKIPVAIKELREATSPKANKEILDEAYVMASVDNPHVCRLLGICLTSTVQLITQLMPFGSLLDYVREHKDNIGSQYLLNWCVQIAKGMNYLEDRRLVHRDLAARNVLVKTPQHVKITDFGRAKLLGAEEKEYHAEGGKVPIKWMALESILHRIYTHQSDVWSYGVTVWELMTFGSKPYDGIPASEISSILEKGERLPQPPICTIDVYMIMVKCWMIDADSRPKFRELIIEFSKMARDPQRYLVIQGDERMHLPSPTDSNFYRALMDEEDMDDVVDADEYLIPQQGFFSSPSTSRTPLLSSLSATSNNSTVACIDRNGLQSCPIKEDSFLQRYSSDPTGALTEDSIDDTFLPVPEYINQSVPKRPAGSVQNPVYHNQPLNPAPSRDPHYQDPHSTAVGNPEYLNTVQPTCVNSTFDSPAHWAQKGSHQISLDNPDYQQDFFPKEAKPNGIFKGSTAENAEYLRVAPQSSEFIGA
In short: as §1

EGFR wildtype (WT) = EGFR wildtype (WT) (Homo sapiens, UniProt P00533); experiment: Biochemical EGFR kinase assay (Lance Ultra TR-FRET), wildtype
Chain of EGFR wildtype (WT) (P00533 25-1210): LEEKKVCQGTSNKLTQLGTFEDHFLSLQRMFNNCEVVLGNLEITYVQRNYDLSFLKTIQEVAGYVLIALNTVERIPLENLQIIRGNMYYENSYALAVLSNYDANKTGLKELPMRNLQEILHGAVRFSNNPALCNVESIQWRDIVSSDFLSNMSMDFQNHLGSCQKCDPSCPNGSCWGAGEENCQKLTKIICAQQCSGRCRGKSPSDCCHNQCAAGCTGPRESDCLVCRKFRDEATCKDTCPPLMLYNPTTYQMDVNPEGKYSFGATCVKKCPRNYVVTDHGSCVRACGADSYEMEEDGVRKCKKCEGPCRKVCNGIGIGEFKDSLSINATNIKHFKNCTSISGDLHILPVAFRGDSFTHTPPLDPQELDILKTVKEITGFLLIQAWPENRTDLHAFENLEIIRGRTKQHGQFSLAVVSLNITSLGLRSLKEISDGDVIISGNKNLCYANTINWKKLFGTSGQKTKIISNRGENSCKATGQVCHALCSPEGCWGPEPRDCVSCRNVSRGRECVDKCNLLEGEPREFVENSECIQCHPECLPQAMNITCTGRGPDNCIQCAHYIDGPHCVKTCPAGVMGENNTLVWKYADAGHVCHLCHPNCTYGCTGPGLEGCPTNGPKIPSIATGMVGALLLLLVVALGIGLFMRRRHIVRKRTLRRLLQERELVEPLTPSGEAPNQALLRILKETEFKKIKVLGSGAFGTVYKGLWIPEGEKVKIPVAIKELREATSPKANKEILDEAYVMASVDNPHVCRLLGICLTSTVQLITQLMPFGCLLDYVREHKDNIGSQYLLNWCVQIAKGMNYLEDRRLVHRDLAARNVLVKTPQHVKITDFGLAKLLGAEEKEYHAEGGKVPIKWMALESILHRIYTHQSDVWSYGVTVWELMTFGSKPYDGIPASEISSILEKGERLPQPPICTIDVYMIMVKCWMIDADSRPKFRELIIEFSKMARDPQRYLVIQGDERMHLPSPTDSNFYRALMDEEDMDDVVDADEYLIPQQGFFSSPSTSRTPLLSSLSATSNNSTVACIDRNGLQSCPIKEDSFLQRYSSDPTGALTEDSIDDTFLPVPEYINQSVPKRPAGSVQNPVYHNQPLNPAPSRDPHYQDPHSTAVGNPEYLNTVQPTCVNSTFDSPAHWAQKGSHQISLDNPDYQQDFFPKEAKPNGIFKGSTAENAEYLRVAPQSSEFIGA
In short: as §1

[1] = Km ATP, read-out: IC50 del19/T790M/C797S, Km ATP
[2] = Km ATP, read-out: IC50 L858R/T790M/C797S, Km ATP
[3] = Km ATP, read-out: IC50 del19/C797S, Km ATP
[4] = Km ATP, read-out: IC50 L858R/C797S, Km ATP
[5] = Km ATP, read-out: IC50 WT, Km ATP
[6] = IC50 del19/T790M/C797S, 100 μM ATP
[7] = IC50 L858R/T790M/C797S, 100 μM ATP

IC50 (EGFR del19/T790M/C797S; [1]) [nM]	IC50 (EGFR L858R/T790M/C797S; [2]) [nM]	IC50 (EGFR del19/C797S; [3]) [nM]	IC50 (EGFR L858R/C797S; [4]) [nM]	IC50 (EGFR wildtype (WT); [5]) [nM]	IC50 (EGFR del19/T790M/C797S; [6]) [nM]	IC50 (EGFR L858R/T790M/C797S; [7]) [nM]	IC50 (EGFR del19/C797S; IC50 del19/C797S, 100 μM ATP) [nM]	IC50 (EGFR L858R/C797S; IC50 L858R/C797S, 100 μM ATP) [nM]	IC50 (EGFR wildtype (WT); IC50 WT, 100 μM ATP) [nM]	Compound
–	–	–	–	335	6.3	3.7	124	409	> 10000	CC1(O)CCC(Nc2cc(Nc3ccnc(N4CC(CO)C(F)(F)C4)n3)ncc2-c2ccn(C(F)F)n2)CC1 (stereo not shown) [Example 346, (1s,4s)-4-((2-((2-(3,3-Difluoro-4-(hydroxymethyl)pyrrolidin-1-yl)pyrimidin-4-yl)amino)-5-(1-(difluoromethyl)-1H-pyrazol-3-yl)pyridin-4-yl)amino)-1-methylcyclohexan-1-ol]
0.5	0.2	134	14.6	145	3.5	0.6	134	149	> 10000	CC1(O)CCC(Nc2cc(Nc3ccnc(N4CCC(O)C(F)(F)C4)n3)ncc2-c2ccn(C(F)F)n2)CC1 (stereo not shown) [Example 348, 1-(4-((5-(1-(Difluoromethyl)-1H-pyrazol-3-yl)-4-(((1s,4s)-4-hydroxy-4-methylcyclohexyl)amino)pyridin-2-yl)amino)pyrimidin-2-yl)-3,3-difluoropiperidin-4-ol]
2.7	2.8	198	44.3	235	–	–	–	–	–	C[C@]1(O)CC[C@@H](Nc2cc(Nc3ccnc(N4CCC[C@H](O)C4)n3)ncc2-c2ccn(C(F)F)n2)CC1 [Example 351, (S)-1-(4-((5-(1-(Difluoromethyl)-1H-pyrazol-3-yl)-4-(((1s,4R)-4-hydroxy-4-methylcyclohexyl)amino)pyridin-2-yl)amino)pyrimidin-2-yl)piperidin-3-ol]
0.7	0.3	11	13.3	64.4	–	–	–	–	–	C[C@]1(O)CC[C@@H](Nc2nc(Nc3ccnc(-c4cnn(S(=O)(=O)C5CC5)c4)c3)ncc2-c2ccn(C(F)F)n2)CC1 [Example 355, (1s,4s)-4-((2-((2-(1-(Cyclopropylsulfonyl)-1H-pyrazol-4-yl)pyridin-4-yl)amino)-5-(1-(difluoromethyl)-1H-pyrazol-3-yl)pyrimidin-4-yl)amino)-1-methylcyclohexan-1-ol]
1.1	1.8	9.8	12.1	96.6	–	–	–	–	–	Cn1nc(-c2cnc(Nc3ccnc(-c4cnn(S(=O)(=O)C5CC5)c4)c3)nc2N[C@H]2CC[C@@](C)(O)CC2)cc1C(F)(F)F [Example 356, (1s,4s)-4-((2-((2-(1-(Cyclopropylsulfonyl)-1H-pyrazol-4-yl)pyridin-4-yl)amino)-5-(1-methyl-5-(trifluoromethyl)-1H-pyrazol-3-yl)pyrimidin-4-yl)amino)-1-methylcyclohexan-1-ol]
0.2	0.4	5.2	8.4	46.2	–	–	–	–	–	C[C@]1(O)CC[C@@H](Nc2nc(Nc3ccnc(-c4cnn(S(=O)(=O)C5CC5)c4)c3)ncc2-c2ccn(CC(F)F)n2)CC1 [Example 357, (1s,4s)-4-((2-((2-(1-(Cyclopropylsulfonyl)-1H-pyrazol-4-yl)pyridin-4-yl)amino)-5-(1-(2,2-difluoroethyl)-1H-pyrazol-3-yl)pyrimidin-4-yl)amino)-1-methylcyclohexan-1-ol]
0.5	0.9	9.5	16.7	140	–	–	–	–	–	C[C@]1(O)CC[C@@H](Nc2nc(Nc3ccnc(-c4cnn(S(=O)(=O)C5CC5)c4)c3)ncc2-c2ccn(CC(F)(F)F)n2)CC1 [Example 360, (1s,4s)-4-((2-((2-(1-(Cyclopropylsulfonyl)-1H-pyrazol-4-yl)pyridin-4-yl)amino)-5-(1-(2,2,2-trifluoroethyl)-1H-pyrazol-3-yl)pyrimidin-4-yl)amino)-1-methylcyclohexan-1-ol]

The remaining lines, values behind:

Compound	IC50 (EGFR del19/T790M/C797S; [1]) [nM]	IC50 (EGFR L858R/T790M/C797S; [2]) [nM]	IC50 (EGFR del19/C797S; [3]) [nM]	IC50 (EGFR L858R/C797S; [4]) [nM]	IC50 (EGFR wildtype (WT); [5]) [nM]	IC50 (EGFR del19/T790M/C797S; [6]) [nM]	IC50 (EGFR L858R/T790M/C797S; [7]) [nM]	IC50 (EGFR del19/C797S; IC50 del19/C797S, 100 μM ATP) [nM]	IC50 (EGFR L858R/C797S; IC50 L858R/C797S, 100 μM ATP) [nM]	IC50 (EGFR wildtype (WT); IC50 WT, 100 μM ATP) [nM]
C[C@]1(O)CC[C@@H](Nc2cc(Nc3ccnc(-c4cnn(CC(F)(F)F)c4)n3)ncc2-c2ccn(CC(F)F)n2)CC1 [Example 344, (1s,4s)-4-((5-(1-(2,2-Difluoroethyl)-1H-pyrazol-3-yl)-2-((2-(1-(2,2,2-trifluoroethyl)-1H-pyrazol-4-yl)pyrimidin-4-yl)amino)pyridin-4-yl)amino)-1-methylcyclohexan-1-ol]	0.4	0.4	29.5	0.2	58.6	–	–	–	–	–
C[C@]1(O)CC[C@@H](Nc2cc(Nc3nc(-c4cnn(S(=O)(=O)C5CC5)c4)ncc3F)ncc2-c2ccn(CC(F)F)n2)CC1 [Example 345, (1s,4s)-4-((2-((2-(1-(Cyclopropylsulfonyl)-1H-pyrazol-4-yl)-5-fluoropyrimidin-4-yl)amino)-5-(1-(2,2-difluoroethyl)-1H-pyrazol-3-yl)pyridin-4-yl)amino)-1-methylcyclohexan-1-ol]	0.4	0.9	4.6	0.3	22.2	–	–	–	–	–
CC1(O)CCC(Nc2cc(Nc3ccnc(N4CC(CO)C(C)(C)C4)n3)ncc2-c2ccn(C(F)F)n2)CC1 (stereo not shown) [Example 347, (1s,4s)-4-((5-(1-(Difluoromethyl)-1H-pyrazol-3-yl)-2-((2-(4-(hydroxymethyl)-3,3-dimethylpyrrolidin-1-yl)pyrimidin-4-yl)amino)pyridin-4-yl)amino)-1-methylcyclohexan-1-ol]	1.9	0.7	99	48.2	400	3.1	1.9	329	449	> 10000
CC1(O)CCC(Nc2cc(Nc3ccnc(N4CC(O)C(F)(F)C4)n3)ncc2-c2ccn(C(F)F)n2)CC1 (stereo not shown) [Example 349, 1-(4-((5-(1-(Difluoromethyl)-1H-pyrazol-3-yl)-4-(((1s,4s)-4-hydroxy-4-methylcyclohexyl)amino)pyridin-2-yl)amino)pyrimidin-2-yl)-4,4-difluoropyrrolidin-3-ol]	2.4	0.3	53.7	77.2	189	1	2.8	276	304	> 10000
CC1(O)CCC(Nc2cc(Nc3ccnc(N4CCC(F)(F)C(O)C4)n3)ncc2-c2ccn(C(F)F)n2)CC1 (stereo not shown) [Example 350, 1-(4-((5-(1-(Difluoromethyl)-1H-pyrazol-3-yl)-4-(((1s,4s)-4-hydroxy-4-methylcyclohexyl)amino)pyridin-2-yl)amino)pyrimidin-2-yl)-4,4-difluoropiperidin-3-ol]	4.2	2.6	95.1	117	261	–	–	–	–	–
C[C@]1(O)CC[C@@H](Nc2cc(Nc3ccnc(N4CCC[C@@H](O)C4)n3)ncc2-c2ccn(C(F)F)n2)CC1 [Example 352, (R)-1-(4-((5-(1-(Difluoromethyl)-1H-pyrazol-3-yl)-4-(((1s,4S)-4-hydroxy-4-methylcyclohexyl)amino)pyridin-2-yl)amino)pyrimidin-2-yl)piperidin-3-ol]	7.3	4.8	653	105	457	–	–	–	–	–
Cn1nc(-c2cnc(Nc3ccnc(N4CCC(O)C(F)(F)C4)n3)cc2NC2CCC(C)(O)CC2)cc1C(F)(F)F (stereo not shown) [Example 353, 3,3-Difluoro-1-(4-((4-(((1s,4s)-4-hydroxy-4-methylcyclohexyl)amino)-5-(1-methyl-5-(trifluoromethyl)-1H-pyrazol-3-yl)pyridin-2-yl)amino)pyrimidin-2-yl)piperidin-4-ol]	0.7	0.3	133	15.7	175	0.9	0.8	252	275	> 10000
C[C@]1(O)CC[C@@H](Nc2cc(Nc3ccnc(-c4cnn(S(=O)(=O)C5CC5)c4)c3)ncc2-c2ccn(C(F)F)n2)CC1 [Example 354, (1s,4s)-4-((2-((2-(1-(Cyclopropylsulfonyl)-1H-pyrazol-4-yl)pyridin-4-yl)amino)-5-(1-(difluoromethyl)-1H-pyrazol-3-yl)pyridin-4-yl)amino)-1-methylcyclohexan-1-ol]	–	–	–	–	–	2	13.1	135	2540	> 10000
COCn1ccc(-c2cnc(Nc3ccnc(-c4cnn(S(=O)(=O)C5CC5)c4)c3)nc2N[C@H]2CC[C@@](C)(O)CC2)n1 [Example 358, (1s,4s)-4-((2-((2-(1-(Cyclopropylsulfonyl)-1H-pyrazol-4-yl)pyridin-4-yl)amino)-5-(1-(methoxymethyl)-1H-pyrazol-3-yl)pyrimidin-4-yl)amino)-1-methylcyclohexan-1-ol]	0.2	0.3	2.3	3.7	39.6	–	–	–	–	–
C[C@]1(O)CC[C@@H](Nc2nc(Nc3ccnc(-c4cnn(S(=O)(=O)C5CC5)c4)c3)ncc2-c2ccn(CCC(F)(F)F)n2)CC1 [Example 359, (1s,4s)-4-((2-((2-(1-(Cyclopropylsulfonyl)-1H-pyrazol-4-yl)pyridin-4-yl)amino)-5-(1-(3,3,3-trifluoropropyl)-1H-pyrazol-3-yl)pyrimidin-4-yl)amino)-1-methylcyclohexan-1-ol]	0.6	1.6	15.4	18.3	208	–	–	–	–	–
